Test results reported in patent US20260363244A1, “HERBICIDAL COMPOSITIONS COMPRISING URACILS” (BASF SE, priority 2022, published 2026).
Where two headings read alike, the source gives them in different places.

Legend:
Assay type in all cases: in vivo
Avena fatua = assay: greenhouse post-emergence herbicidal activity, AVEFA; conditions: read-out: % activity (solo application); for activity at 2 g/ha / activity at 4 g/ha: 168 h, GS 12-16, 7 DAT; for activity at 2 g/ha: 2 gai/ha; for activity at 4 g/ha: 4 gai/ha; for activity at 0.5 g/ha: 0.5 gai/ha
Procedure: (§1) The following examples serve to illustrate the invention.
(§2) The culture containers used were plastic pots containing loamy sand with approximately 3.0% of humus as substrate. The seeds of the test plants were sown separately for each species.
(§3) For the post-emergence treatment, the test plants were grown to a plant height of from 3 to 15 cm, depending on the plant habit, and only then treated with the active compounds which had been suspended or emulsified in water. To this end, the test plants were either sown directly, and grown in the same containers, or they were first grown separately as seedlings and transplanted into the test containers a few days prior to treatment.
(§4) Depending on the species, the plants were kept at 10-25 °C and 20-35 °C, respectively. The test period extended over 2 to 4 weeks. During this time, the plants were tended and their response to the individual treatments was evaluated.
(§5) Evaluation was carried out using a scale from 0 to 100. 100 means no emergence of the plants, or complete destruction of at least the above-ground parts, and 0 means no damage or normal course of growth. A good herbicidal activity is given at values of at least 70, and very good herbicidal activity is given at values of at least 85.
(§6) The respective stated components A and B, and if appropriate, C were formulated as a 5% by weight strength emulsion concentrate and, with addition of the amount of solvent system, introduced into the spray liquor used for applying the active compound. In the examples, the solvent used was water.
(§7) In the examples below, using the method of S. R. Colby (1967) “Calculating synergistic and antagonistic responses of herbicide combinations”, Weeds 15, p. 22ff., the value E, which is expected if the activity of the individual active compounds is only additive, was calculated.
(§8) E=X+Y−(X·Y/100) • where • X=percent activity using active compound A at an application rate a; • Y=percent activity using active compound B at an application rate b; • E=expected activity (in %) by A+B at application rates a+b.
(§9) The plants used in the greenhouse experiments were of the following species
(§10) In this context, a.i. means active ingredient, based on 100% active ingredient.
(§11) As indicated the application was post emergent (POST) at the respective growth stage (GS) of the weed.
(§12) Assessment was at the indicated days after treatment (DAT).

Kochia scoparia = assay: greenhouse post-emergence herbicidal activity, KCHSC; conditions: for % activity: solo application, KCHSC
Procedure: as §1, §2, §3, §4, §5, §6, §7, §8, §9, §10, §11, §12

Setaria faberi = assay: greenhouse post-emergence herbicidal activity, SETFA; conditions: Setaria faberi, post-emergence, read-out: % activity (solo application); for activity at […]: 0.25 gai/ha; for activity at 0.5 g/ha: 0.5 gai/ha; for activity at 2 g/ha: 2 gai/ha; for activity at 4 g/ha: 4 gai/ha
Procedure: as §1, §2, §3, §4, §5, §6, §7, §8, §9, §10, §11, §12

Setaria viridis = assay: greenhouse post-emergence herbicidal activity, SETVI; conditions: for activity at 1 g/ha: 1 gai/ha; for % activity: solo application, SETVI, GS 11-33, 8 DAT, use rate 0.8 gai/ha
Procedure: as §1, §2, §3, §4, §5, §6, §7, §8, §9, §10, §11, §12

Digitaria sanguinales = assay: greenhouse post-emergence herbicidal activity, DIGSA; conditions: for activity at […]: 0.25 gai/ha
Procedure: as §1, §2, §3, §4, §5, §6, §7, §8, §9, §10, §11, §12

Eleusine indica = assay: greenhouse post-emergence herbicidal activity, ELEIN; conditions: 480 h, GS 12-16, 20 DAT, 0.25 gai/ha, read-out: % activity (solo application)
Procedure: as §1, §2, §3, §4, §5, §6, §7, §8, §9, §10, §11, §12

Abutilon theophrasti = assay: greenhouse post-emergence herbicidal activity, ABUTH; conditions: read-out: % activity (solo application); for activity at 2 g/ha: 2 gai/ha
Procedure: as §1, §2, §3, §4, §5, §6, §7, §8, §9, §10, §11, §12

Amaranthus tamariscinus = assay: greenhouse post-emergence herbicidal activity, AMATA; conditions: 0.25 gai/ha, read-out: % activity (solo application)
Procedure: as §1, §2, §3, §4, §5, §6, §7, §8, §9, §10, §11, §12

Commenline benghalensis = assay: greenhouse post-emergence herbicidal activity, COMBE; conditions: read-out: % activity (solo application); for activity at 0.5 g/ha: 0.5 gai/ha
Procedure: as §1, §2, §3, §4, §5, §6, §7, §8, §9, §10, §11, §12

Echinocloa crus-galli = assay: greenhouse post-emergence herbicidal activity, ECHCG; conditions: for % activity: solo application, ECHCG, GS 11-33, 20 DAT
Procedure: as §1, §2, §3, §4, §5, §6, §7, §8, §9, §10, §11, §12

Brachiaria decumbens = assay: greenhouse post-emergence herbicidal activity, BRADC; conditions: solo application, BRADC, GS 11-33, 20 DAT, use rate 1.6 gai/ha
Procedure: as §1, §2, §3, §4, §5, §6, §7, §8, §9, §10, §11, §12

Sorghum halepense = assay: greenhouse post-emergence herbicidal activity, SORHA; conditions: solo application, SORHA, GS 11-33, 20 DAT, use rate 1.6 gai/ha
Procedure: as §1, §2, §3, §4, §5, §6, §7, §8, §9, §10, §11, §12

Lolium multiflorum = assay: greenhouse post-emergence herbicidal activity, LOLMU; conditions: solo application, LOLMU, GS 11-33, 7 DAT, use rate 1.6 gai/ha
Procedure: as §1, §2, §3, §4, §5, §6, §7, §8, §9, §10, §11, §12

[1] = Digitaria, post-emergence, 480 h, GS 12-16, 20 DAT, read-out: % activity (solo application)
[2] = 480 h, GS 12-16, 20 DAT, 1 gai/ha

C=C[C@]1(C(=O)N[C@H]2CO[C@@H](C(=O)OC)C2)CC(c2cc(F)cc(F)c2)=NO1 [(II.1.cis.B), methyl (2R,4R)-4-[[(5S)-3-(3,5-difluorophenyl)-5-vinyl-4H-isoxazole-5-carbonyl]amino]tetrahydrofuran-2-carboxylate]
activity at 2 g/ha (Avena fatua): 10% | activity at 4 g/ha (Avena fatua): 20% | activity at 0.5 g/ha (Kochia scoparia; Bassia scoparia, post-emergence, 480 h, GS 12-16, 20 DAT, 0.5 gai/ha, read-out: % activity (solo application)): 15% | activity at […] (Setaria faberi; 144 h, GS 12-16, 6 DAT): 35% | activity at 0.5 g/ha (Setaria faberi; 144 h, GS 12-16, 6 DAT): 55% | activity at […] (Setaria faberi; 480 h, GS 12-16, 20 DAT): 20% | activity at 0.5 g/ha (Setaria faberi; 480 h, GS 12-16, 20 DAT): 25% | activity at 0.5 g/ha (Setaria viridis; Setaria viridis, post-emergence, 480 h, GS 12-16, 20 DAT, 0.5 gai/ha, read-out: % activity (solo application)): 50% | activity at […] (Digitaria sanguinales; [1]): 20% | activity at 0.5 g/ha (Digitaria sanguinales; Digitaria, post-emergence, 480 h, GS 12-16, 20 DAT, 0.5 gai/ha, read-out: % activity (solo application)): 50% | activity at […] (Eleusine indica): 20% | activity at 0.5 g/ha (Abutilon theophrasti; 144 h, GS 12-16, 6 DAT, 0.5 gai/ha): 0% | activity at […] (Amaranthus tamariscinus; 144 h, GS 12-16, 6 DAT): 15%

C=C[C@]1(C(=O)N[C@H]2C=C[C@@H](C(=O)OC)C2)CC(c2cc(F)cc(F)c2)=NO1 [(II.5.cis.B), methyl (1S,4R)-4-[[(5S)-3-(3,5-difluorophenyl)-5-vinyl-4H-isoxazole-5-carbonyl]amino]cyclopent-2-ene-1-carboxylate]
activity at 2 g/ha (Avena fatua): 40% | activity at […] (Setaria faberi; 144 h, GS 12-16, 6 DAT): 40% | activity at […] (Setaria faberi; 480 h, GS 12-16, 20 DAT): 30% | activity at […] (Commenline benghalensis; 144 h, GS 12-16, 6 DAT, 0.25 gai/ha): 40% | activity at 0.5 g/ha (Commenline benghalensis; 144 h, GS 12-16, 6 DAT): 55% | activity at 0.5 g/ha (Commenline benghalensis; 480 h, GS 12-16, 20 DAT): 70% | activity at […] (Echinocloa crus-galli; Echinochloa crus-galli, post-emergence, 144 h, GS 12-16, 6 DAT, 0.25 gai/ha, read-out: % activity (solo application)): 15% | activity at […] (Digitaria sanguinales; [1]): 35% | activity at […] (Amaranthus tamariscinus; 144 h, GS 12-16, 6 DAT): 45% | activity at […] (Amaranthus tamariscinus; 480 h, GS 12-16, 20 DAT): 40%

C=C[C@]1(C(=O)N[C@@H]2CO[C@H](C(=O)OC)C2)CC(c2cc(F)cc(F)c2)=NO1 [(II.1.cis.A), methyl (2S,4S)-4-[[(5S)-3-(3,5-difluorophenyl)-5-vinyl-4H-isoxazole-5-carbonyl]amino]tetrahydrofuran-2-carboxylate]
activity at 2 g/ha (Avena fatua): 20% | activity at 4 g/ha (Avena fatua): 25% | activity at 2 g/ha (Setaria faberi; 168 h, GS 12-16, 7 DAT): 70% | activity at 4 g/ha (Setaria faberi; 168 h, GS 12-16, 7 DAT): 70% | activity at 2 g/ha (Setaria faberi; 504 h, GS 12-16, 21 DAT): 75% | activity at 4 g/ha (Setaria faberi; 504 h, GS 12-16, 21 DAT): 85% | activity at 2 g/ha (Abutilon theophrasti; 168 h, GS 12-16, 7 DAT): 15% | activity at 2 g/ha (Abutilon theophrasti; 504 h, GS 12-16, 21 DAT): 0%

C[C@]1(C(=O)N[C@H]2C=C[C@@H](C(=O)O)C2)CC(c2cc(F)cc(F)c2)=NO1 [(II.8.cis.B), (1S,4R)-4-[[(5R)-3-(3,5-difluorophenyl)-5-methyl-4H-isoxazole-5-carbonyl]amino]cyclopent-2-ene-1-carboxylic acid]
activity at 0.5 g/ha (Avena fatua; 144 h, GS 12-16, 6 DAT): 20% | activity at 2 g/ha (Avena fatua): 30% | activity at 4 g/ha (Avena fatua): 30% | activity at 0.5 g/ha (Avena fatua; 480 h, GS 12-16, 20 DAT): 15% | activity at 1 g/ha (Avena fatua; [2]): 65% | activity at 1 g/ha (Kochia scoparia; Bassia scoparia, post-emergence, 480 h, GS 12-16, 20 DAT, 1 gai/ha, read-out: % activity (solo application)): 20% | activity at 0.5 g/ha (Setaria faberi; 144 h, GS 12-16, 6 DAT): 20% | activity at 0.5 g/ha (Setaria faberi; 480 h, GS 12-16, 20 DAT): 30% | activity at 1 g/ha (Setaria faberi; [2]): 50% | activity at 0.5 g/ha (Commenline benghalensis; 144 h, GS 12-16, 6 DAT): 15% | activity at 1 g/ha (Commenline benghalensis; 144 h, GS 12-16, 6 DAT, 1 gai/ha): 40% | activity at 1 g/ha (Echinocloa crus-galli; Echinochloa crus-galli, post-emergence, 144 h, GS 12-16, 6 DAT, 1 gai/ha, read-out: % activity (solo application)): 70% | activity at 1 g/ha (Setaria viridis; Setaria viridis, post-emergence, 144 h, GS 12-16, 6 DAT, read-out: % activity (solo application)): 10% | activity at 1 g/ha (Setaria viridis; Setaria viridis, post-emergence, 480 h, GS 12-16, 20 DAT, read-out: % activity (solo application)): 20%

CCOC(=O)COc1ncccc1Oc1nc(-n2c(=O)cc(C(F)(F)F)n(C)c2=O)c(F)cc1Cl [I.6]
% activity (Brachiaria decumbens): 40% | % activity (Sorghum halepense): 10% | % activity (Kochia scoparia; GS 11-33, 20 DAT, use rate 0.8 gai/ha): 55% | % activity (Echinocloa crus-galli; use rate 1.6 gai/ha): 45% | % activity (Setaria viridis): 30% | % activity (Lolium multiflorum): 15% | % activity (Digitaria sanguinales; solo application, DIGSA, GS 11-33, 20 DAT, use rate 1.6 gai/ha): 50%

CCOC(=O)COc1ncccc1Oc1nc(-n2c(=O)cc(C(F)(F)F)n(C)c2=O)c(F)cc1Br [I.9]
% activity (Kochia scoparia; GS 11-33, 7 DAT, use rate 0.4 gai/ha): 60% | % activity (Echinocloa crus-galli; use rate 0.4 gai/ha): 40% | % activity (Setaria viridis): 75%
